# Like-named read-outs stand apart in the source and are kept apart here.
# Tests used:
# [1] = system: patients with HFrEF following hemodynamic stabilization after an episode of ADHF; conditions: for Proportion of patients achieving the target dose of 200 mg LCZ696 b.i.d.: 10 weeks after randomization; for Odds ratio (OR) for up-titration success to 200 mg b.i.d.: multivariate logistic regression
# Source text: The study design comprises three Epochs (phases): the Screening Epoch; the Treatment Epoch defined as 10 weeks after Randomization; and 16-week Follow-up Epoch. Patients were stratified into three groups based on their pre-admission treatment status: (a) receiving an angiotensin-converting enzyme inhibitor (ACEI), (b) receiving an angiotensin receptor blocker (ARB), or (c) ACEI/ARB-naïve patients.
# The study population consists of patients hospitalized for an episode of acute decompensation of heart failure who are diagnosed with CHF NYHA class II-to-IV and reduced ejection fraction (LVEF 40%). Patients can be either with first presentation (de novo), or acute decompensation of HF due to deterioration in patients with a prior history of (chronic) HF.
# Inclusion Criteria: • 1. Patients hospitalized due to acute decompensated HF episode (ADHF) as primary diagnosis) and consistent Signs and Symptoms. • 2. Diagnosis of HF New York Heart Association class II-to-IV and reduced ejection fraction: Left ventricular ejection fraction 40% at Screening. • 3. […] Stabilized (while in the hospital) for at least 24 h leading to Randomization defined as: • No need for IV diuretics in the past 24 h prior to signing ICF • Systolic blood pressure (SBP) 110 mm Hg for at least 6 h prior to Randomization • 5. Meeting one of the following criteria: • Patients on any dose of ACEI or ARB at screening • ACEI/ARB naïve patients and patients not on ACEI or ARB for at least 4 weeks before screening.
# The basis for up-titration toward the target dose was taking into consideration tolerability (i.e., incidence of hypotension, renal or hepatic impairment and hyperkalemia) based on clinical evaluation and laboratory assessment.
# [2] = system: patients hospitalized for acute HFrEF
# Description: The starting dose and all subsequent doses were selected to optimize the highest tolerated dose based on a systolic blood pressure (SBP) algorithm.
# Inclusion Criteria: • Patients ≥18 y of age with the capacity to provide written informed consent. • Currently hospitalized for a primary diagnosis of HF, including symptoms and signs of fluid overload. • Eligible patients will be randomized no earlier than 24 hours and up to ten days after presentation while still hospitalized as long as meet the following definition of stable status: • SBP≥100 mm Hg for the preceding 6 hours prior to randomization; no symptomatic hypotension • No increase (intensification) in i.v. diuretic dose within last 6 hours prior to randomization • No i.v. inotropic drugs for 24 hours prior to randomization • No i.v. vasodilators including nitrates within last 6 hours prior to randomization • Left ventricular EF 40% within the past 6 m (including current hospitalization) using echocardiography, multi gated acquisition scan (MUGA), CT scanning, MRI or ventricular angiography, provided no subsequent study documented an EF of >40% • Elevated NT-proBNP≥1600 pg/mL OR BNP≥400 pg/mL during current hospitalization.
# [3] = system: high-sensitivity cardiac troponin (hsTnT); conditions: compared with enalapril, 4 weeks
# Description: (§1) Circulating high-sensitivity cardiac troponin (hsTn) and soluble ST2 (sST2) reflect myocardial stress in patients with heart failure (HF). Production of cyclic guanosine 3′5′ monophosphate (cGMP) in response to activation of natriuretic peptide receptors reduces cardiac afterload and preload.
# (§2) Ratios of geometric means (timepoint/baseline) were determined and compared as a ratio for sacubitril/valsartan vs. enalapril.
# urinary cGMP = conditions: compared with enalapril, 1 week
# Description: as §1, §2
# [4] = system: ambulatory HF patients with an ejection fraction ≤40%; conditions: compared with enalapril; cited from earlier work
# neprilysin = neprilysin (Homo sapiens, UniProt P08473); conditions: 200 mg LCZ696 b.i.d.; cited from earlier work
# Chain of neprilysin (P08473 whole entry): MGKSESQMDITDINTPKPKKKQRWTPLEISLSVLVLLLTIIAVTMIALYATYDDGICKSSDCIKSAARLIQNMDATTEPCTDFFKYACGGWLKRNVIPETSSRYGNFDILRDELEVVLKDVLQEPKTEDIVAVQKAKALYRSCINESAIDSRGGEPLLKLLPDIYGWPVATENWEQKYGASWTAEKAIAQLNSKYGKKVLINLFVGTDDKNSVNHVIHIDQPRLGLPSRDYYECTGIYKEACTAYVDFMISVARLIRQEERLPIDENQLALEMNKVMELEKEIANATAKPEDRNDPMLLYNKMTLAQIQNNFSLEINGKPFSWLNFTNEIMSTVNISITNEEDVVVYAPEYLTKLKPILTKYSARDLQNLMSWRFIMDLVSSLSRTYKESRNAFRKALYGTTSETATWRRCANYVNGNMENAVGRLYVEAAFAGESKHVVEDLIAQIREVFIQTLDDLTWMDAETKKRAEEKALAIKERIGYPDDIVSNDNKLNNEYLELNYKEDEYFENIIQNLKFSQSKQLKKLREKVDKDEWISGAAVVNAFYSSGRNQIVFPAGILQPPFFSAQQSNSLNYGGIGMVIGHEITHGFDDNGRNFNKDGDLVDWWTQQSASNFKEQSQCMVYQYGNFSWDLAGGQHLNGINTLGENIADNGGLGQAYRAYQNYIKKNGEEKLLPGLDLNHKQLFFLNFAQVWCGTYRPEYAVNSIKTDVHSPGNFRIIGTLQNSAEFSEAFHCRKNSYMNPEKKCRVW
structure (smiles),measurement,setting,value
"CCCCC(=O)N(Cc1ccc(-c2ccccc2-c2nn[n-]n2)cc1)[C@H](C(=O)[O-])C(C)C.CCOC(=O)[C@H](C)C[C@@H](Cc1ccc(-c2ccccc2)cc1)NC(=O)CCC(=O)[O-].[Na+].[Na+].[Na+] [LCZ696, trisodium [3((1S,3R)-1-biphenyl-4-ylmethyl-3-ethoxycarbonyl-1-butylcarbamoyl) propionate-(S)-3′-methyl-2′-(pentanoyl{2″-(tetrazol-5-ylate)biphenyl-4′-ylmethyl}amino)butyrate]hemipentahydrate]","Relative RR, primary endpoint (target dose 200 mg b.i.d.)",[1]; ACEI or ARB strata compared to naive,1.01
same,Patients who achieved the target dose,[1]; ACEI/ARB naïve patients,48.3%
same,"RRR, achieved target dose",[1]; ACEI/ARB naïve vs prior ACEI/ARB use,1.008
same,Patients who achieved and maintained any dose of LCZ696 for at least 2 weeks leading to week 10,[1]; both groups,More than 86%
same,Subjects maintained on any dose at week 10,[1]; both groups (ACEI/ARB naïve and not naïve),88%
same,Patients able to achieve and maintain any dose at week 10,[1]; de novo HF patients,90%
same,Patients who achieved the target dose,[1]; de novo HF patients,56.0%
same,"RRR, achieved target dose",[1]; de novo HF vs prior HF diagnosis,1.30
same,Feasibility and tolerability of early initiation (in words),[1]; in-hospital or shortly after discharge,feasible and overall well tolerated
same,Proportion of patients achieving the target dose of 200 mg LCZ696 b.i.d.,[1]; post-discharge arm,50.4%
same,Patients who achieved and maintained any dose of LCZ696 for at least 2 weeks leading to week 10,[1]; post-discharge initiation,88.8%
same,Patients who achieved and maintained either 100 mg b.i.d. or 200 mg b.i.d. for at least 2 weeks leading to week 10,[1]; post-discharge initiation,68%
same,"RRR, achieved and maintained 100 mg or 200 mg b.i.d.",[1]; pre- vs post-discharge,0.919
same,"RRR, achieved and maintained any dose",[1]; pre- vs post-discharge,0.973
same,"Relative risk ratio (RRR), achieving target dose 200 mg b.i.d.","[1]; pre- vs post-discharge, 10 weeks",0.893
same,Proportion of patients achieving the target dose of 200 mg LCZ696 b.i.d.,[1]; pre-discharge arm,45.0%
same,Patients who achieved and maintained any dose of LCZ696 for at least 2 weeks leading to week 10,[1]; pre-discharge initiation,86.4%
same,Patients who achieved and maintained either 100 mg b.i.d. or 200 mg b.i.d. for at least 2 weeks leading to week 10,[1]; pre-discharge initiation,62.5%
same,Odds ratio (OR) for up-titration success to 200 mg b.i.d.,[1]; predictor: assignment to pre- or post-discharge initiation,1.21
same,Odds ratio (OR) for up-titration success to 200 mg b.i.d.,[1]; predictor: prior use of an ACEI or ARB,1.04
same,Patients who achieved the target dose,[1]; subjects with a prior HF diagnosis,44.8%
same,Patients who achieved the target dose,[1]; subjects with prior ACEI/ARB use,47.9%
same,Hyperkalemia,[2]; 8 weeks,11.6%
same,Symptomatic hypotension,[2]; 8 weeks,10.0%
same,Worsening renal function,[2]; 8 weeks,13.6%
same,"Angioedema, HR",[2]; LCZ696 vs. Enalapril,0.17
same,"Hyperkalemia, HR",[2]; LCZ696 vs. Enalapril,1.25
same,"Symptomatic hypotension, HR",[2]; LCZ696 vs. Enalapril,1.10
same,"Worsening renal function, HR",[2]; LCZ696 vs. Enalapril,0.93
same,Angioedema in patients who identified as black (in words),[2],no angioedema
same,Angioedema in patients who identified as black (in words),[2]; listed as sacubitril-valsartan,no cases
same,Angioedema events (number in words),[2]; blinded adjudication,one
same,Angioedema,"[2]; blinded adjudication, 8 weeks",0.2%
same,Patients in whom the maximum target dose had been achieved,[2]; by the week 8 study visit,56%
same,Study drug prematurely discontinued prior to 8 weeks,[2]; excluding discontinuation due to death,19.6%
same,Tolerability (in words),[2]; initiated after initial stabilization after an ADHF episode,well tolerated
same,Greater reduction in hsTnT,[3],16%
same,Serial urinary cGMP (in words),urinary cGMP,increased
same,Relative risk reduction in cardiovascular mortality and hospitalization for worsening HF,[4],20%
same,Share of maximal neprilysin inhibition delivered,neprilysin,approximately 90%

# From US20210177803A1, “NEW PHARMACEUTICAL USE FOR THE TREATMENT OF HEART FAILURE” (Novartis AG, priority 2018, published 2021)
